# Results published in patent US9498546B2, “Synthesis and application of novel imaging agents conjugated to DPA 713 analogs for imaging inflammation” (THE JOHNS HOPKINS UNIVERSITY, priority 2012, dated 2016).
# System: LPS-stimulated J774 macrophages (TSPO)
# Assay: In vitro J774 murine macrophage uptake studies (fluorescence microscopy, with or without blocking)
# Format: cell-based
# Settings: 40 nM probe, 1 hour of incubation
# Method: FIG. 4 is a series of photomicrographs (A-I) of J774 macrophages that were cultured in 8 well chamber slides to 80% confluence. LPS was then added to each well for 24 hours to stimulate the cells. […] The cells were returned to the incubator for either 1 hour or 24 hours. The solutions were then removed, the nuclei were labeled with Hoechst 33342 and the cells were briefly washed before mounting and viewing under a fluorescence microscope.
# In vitro J774 murine macrophage uptake studies. The immortalized J774 murine macrophage-like cell line was cultured in RPMI1640+20% FBS+1% penicillin+ streptomycin media in 8-well chamber slides (Fisher Scientific) to approximately 80% confluence. The cells were then stimulated with 1 ng/mL of LPS (Sigma, E. coli 055:B5) for 24 hours prior to addition of the probes of the present invention to 40 nM final concentration. […] The cells were exposed to the fluorescent probes and blocking compounds for either 1 hour or 24 hours prior to exposing to 1 ng/mL of Hoechst 33342 dye (Invitrogen), followed by washing twice briefly with PBS, pH 7.5. The chambers were then removed and the slide mounted with Dako Cytomation aqueous mounting media and a glass coverslip. The cells were visualized using a Nikon 80i upright epifluorescence microscope equipped with a Nikon DS-QilMc darkfield CCD camera and processed using Nikon Image Software on an adjacent workstation. The dyes were excited using either a Nikon Intensilight C-HGFI lamp (IRDye680 and Hoechst) or a Sutter Instruments Co. (Novato, Calif.) LB/LB-30 xenon lamp (IRDye800).
# J774 Cell Uptake Studies. J774 macrophages were cultured in 8 well chamber slides to 80% confluence. LPS was then added to each well for 24 hours to stimulate the cells. […] The cells were returned to the incubator for either 1 hour or 24 hours. The solutions were then removed, the nuclei were labeled with Hoechst 33342 and the cells were briefly washed before mounting and viewing under a fluorescence microscope. […] The tracer localization for both analogs is perinuclear and granular in appearance and is consistent with the gross distribution pattern of TSPO expression in other mononuclear cell-derived lines.
smiles,measurement,value
"CCN(CC)C(=O)Cc1c(-c2ccc(OCCNC(=O)CCCCC[N+]3=C(/C=C/C4=C(Oc5ccc(S(=O)(=O)O)cc5)C(=C/C=C5/N(CCCCS(=O)(=O)O)c6ccc(S(=O)(=O)O)cc6C5(C)C)/CCC4)C(C)(C)c4cc(S(=O)(=O)[O-])ccc43)cc2)nn2c(C)cc(C)nc12 [DPA-713-IRDye800CW, 1-(6-(2-(4-(3-(2-(diethylamino)-2-oxoethyl)-5,7-dimethylpyrazolo[1,5-a]pyrimidin-2-yl)phenoxy)ethylamino)-6-oxohexyl)-2-((E)-2-((E)-3-((E)-2-(3,3-dimethyl-5-sulfo-1-(4-sulfobutyl)indolin-2-ylidene)ethylidene)-2-(4-sulfophenoxyl)cyclohex-1-enyl)vinyl)-3,3-dimethyl-3H-indolium-5-sulfonate]",Observable fluorescence signal (uptake),almost no observable signal
